The test system of data set [1] is bladder. Put plainly: Test Example 4: micturition contraction interval in rats under partial restraint, oral. Type of data set: in vivo, rat (male SD strain). To be noted: Rattus norvegicus, 3 mg/kg oral, pre-administration = 100. From the text: As a control compound, cromakalim was used.
The subject of data set [2] is bladder. Nature of the data set: Test Example 3: vesical contraction interval in anesthetized rats, intravenous. Type of data set: in vivo, rat (female SD strain). To be noted: 1 mg/kg i.v., average over 20 minutes, relative to pre-administration value. From the text:
Female SD strain rats (120-180 g) were used as test animals. Each animal was anesthetized by subcutaneous administration of 1 g/kg urethane. A catheter was inserted into the trachea to secure respiration. A polyethylene cannula (PE50) was inserted into the bladder from the entrance of the urethra and the urethra was ligated at the base. A catheter for blood pressure measurement was inserted into the right carotid artery, and a cannula for drug administration was inserted into the right jugular vein. The arterial catheter and the vesical catheter were connected to pressure transducers to measure the blood pressure and the intravesical pressure. After the bladder was stabilized over about 15 minutes, physiological saline was injected into the bladder at a volume of 0.2-0.7 ml to induce the rhythmical contraction almost once a minute. […]
By this examination method, the effect of the test compounds on both blood pressure and vesical contraction can be evaluated. The blood pressure was measured 5, 15, and 30 minutes after the test compound was injected into the vein. […] The change of average contraction interval (time between contractions) over 20 minutes was expressed as the relative value based on the pre-administration value which was regarded as 100.

The subject of data set [3] is detrusor muscle. Put plainly: Test Example 2: relaxation of guinea pig bladder strips, rhythmical contraction induced by 15 mM KCl. The settings on record: Cavia porcellus, concentration decreasing detrusor contraction by 50%. In kind it is cell-based, guinea pig (male albino Hartley). Summed up:
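Male Hartley guinea pig detrusor strips, mucosa removed, in Krebs-Henseleit buffer at 37 °C, pH about 7.4, 5% CO2/95% O2, 1 g resting tension. Rhythmic contraction induced with 15 mM KCl; compound added cumulatively in half-log steps, 30 min each; […].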

Data set [4] in a line: Test Example 3: arterial blood pressure in anesthetized rats, intravenous. In kind it is in vivo, rat (female SD strain). To be noted: 1 mg/kg i.v. From the text:
Female SD strain rats (120-180 g) were used as test animals. Each animal was anesthetized by subcutaneous administration of 1 g/kg urethane. A catheter was inserted into the trachea to secure respiration. A polyethylene cannula (PE50) was inserted into the bladder from the entrance of the urethra and the urethra was ligated at the base. A catheter for blood pressure measurement was inserted into the right carotid artery, and a cannula for drug administration was inserted into the right jugular vein. The arterial catheter and the vesical catheter were connected to pressure transducers to measure the blood pressure and the intravesical pressure. After the bladder was stabilized over about 15 minutes, physiological saline was injected into the bladder at a volume of 0.2-0.7 ml to induce the rhythmical contraction almost once a minute. After the contraction of the bladder started, the contraction pattern was stabilized for 30-45 minutes, followed by intravenous administration of a test compound.
By this examination method, the effect of the test compounds on both blood pressure and vesical contraction can be evaluated. The blood pressure was measured 5, 15, and 30 minutes after the test compound was injected into the vein. Micturition contraction was induced by injecting physiological saline into the bladder. The change of average contraction interval (time between contractions) over 20 minutes was expressed as the relative value based on the pre-administration value which was regarded as 100.

Data set [5] has as its system detrusor muscle. Nature of the data set: Test Example 1: relaxation of guinea pig bladder strips contracted with 50 mM KCl. Type of data set: cell-based, guinea pig (male albino Hartley). The settings on record: Cavia porcellus; contraction induced by 50 mM KCl; concentration decreasing detrusor contraction by 50%. An outline of the steps: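 Mucosa-free detrusor strips from male Hartley guinea pigs were held at 1 g in Krebs-Henseleit, 37°C, 5% CO2/95% O2, pH about 7.4, and contracted with 50 mM KCl. Compound was added cumulatively in half-log steps, 30 min per concentration; IC50 is the concentration giving 50% relaxation of KCl tension.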

In general, IC50 refers to the concentration at which inhibition is half-maximal. The low end stands for higher potency, the high end for lower potency. As for `CC(O)(C(=O)Nc1cccc2c1C(=O)c1sccc1CO2)C(F)(F)F` (centres unmarked) [Compound 7, 9-(3,3,3-Trifluoro-2-hydroxy-2-methylpropanoylamino)-4,10-dihydrothieno[3,2-c][1]benzoxepin-10-one], the response vs control in vivo at 3 mg/kg was 132% in the data set on bladder [1] (1 hr); 141% in the data set on bladder [1] (2 hr); 149% in the data set on bladder [1] (3 hr); 154% in the data set on bladder [1] (4 hr); 146% with bladder [1] (5 hr). Further, the “Change of contraction interval” value in the data set with bladder [2] is “+186%”. Besides, the IC50 came to 2.1 µM in the data set with detrusor muscle [3] and 2.4 µM in the data set on detrusor muscle [5]. Further, the figures for the “Change of average arterial blood pressure” value in data set [4] (5 min), in data set [4] (15 min) and in data set [4] (30 min) were -4%, “+1%” and “+4%”, respectively.

Source of the values: patent publication US5726325A, “Tricyclic compounds” (Kyowa Hakko Kogyo Co., Ltd., priority 1995, dated 1998).
